Our source for the IC50 values is US12172983B2, “EGFR inhibitors” (Blueprint Medicines Corporation, priority 2019, dated 2024).

The target of one experiment is T1, EGFR (L858R T790M C797S) (Homo sapiens, UniProt P00533, C797S/L858R/T790M).
T1 construct: purchased SignalChem E10-122VG
Description: Biochemical EGFR inhibition assay (Caliper mobility shift), EGFR LRTMCS mutant. As to conditions: inhibitory activity against EGFR LRTMCS mutant; apparent IC50; read-out: Ext Enz LRTMCS. Put shortly:
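Each enzyme was allowed to phosphorylate 10–20% of its peptide at 25° C. before EDTA (35 mM) quench. Separated substrate and product peaks were measured by mobility shift, giving apparent IC50 values.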

The test system of experiment [1] is phosphorylation of EGFR (Tyr1068) in NCI-H1975 cell line that harbors the EGFR L858R T790M mutations. The experiment is described as follows: NCI-H1975 pEGFR AlphaLISA assay. The experiment is classed as cell-based. As to conditions: 4-5 hours incubation, read-out: Ext pEGFR H1975. The method, boiled down: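 NCI-H1975 cells (EGFR L858R/T790M) seeded overnight, then treated with compound for 4-5 h at 37 °C/5% CO2. After lysis, p-EGFR (Tyr1068) quantified by AlphaLISA SureFire Ultra with acceptor then donor beads; IC50 fitted from percent inhibition versus log concentration.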
(Bead proximity is the source of the signal in Alpha formats.)

[2] abbreviates: Homo sapiens, NCI-H1975, inhibition of phosphorylation of mutant EGFR in NCI-H1975 cells.
Where [3] appears, read: inhibition of phosphorylation of mutant EGFR in NCI-H1975 cells.

Like-named read-outs stand apart in the source and are kept apart here. Where only a bound is given, the exact number is not on record here.

T1 sequence (P00533 25-1210 T790M/C797S/L858R): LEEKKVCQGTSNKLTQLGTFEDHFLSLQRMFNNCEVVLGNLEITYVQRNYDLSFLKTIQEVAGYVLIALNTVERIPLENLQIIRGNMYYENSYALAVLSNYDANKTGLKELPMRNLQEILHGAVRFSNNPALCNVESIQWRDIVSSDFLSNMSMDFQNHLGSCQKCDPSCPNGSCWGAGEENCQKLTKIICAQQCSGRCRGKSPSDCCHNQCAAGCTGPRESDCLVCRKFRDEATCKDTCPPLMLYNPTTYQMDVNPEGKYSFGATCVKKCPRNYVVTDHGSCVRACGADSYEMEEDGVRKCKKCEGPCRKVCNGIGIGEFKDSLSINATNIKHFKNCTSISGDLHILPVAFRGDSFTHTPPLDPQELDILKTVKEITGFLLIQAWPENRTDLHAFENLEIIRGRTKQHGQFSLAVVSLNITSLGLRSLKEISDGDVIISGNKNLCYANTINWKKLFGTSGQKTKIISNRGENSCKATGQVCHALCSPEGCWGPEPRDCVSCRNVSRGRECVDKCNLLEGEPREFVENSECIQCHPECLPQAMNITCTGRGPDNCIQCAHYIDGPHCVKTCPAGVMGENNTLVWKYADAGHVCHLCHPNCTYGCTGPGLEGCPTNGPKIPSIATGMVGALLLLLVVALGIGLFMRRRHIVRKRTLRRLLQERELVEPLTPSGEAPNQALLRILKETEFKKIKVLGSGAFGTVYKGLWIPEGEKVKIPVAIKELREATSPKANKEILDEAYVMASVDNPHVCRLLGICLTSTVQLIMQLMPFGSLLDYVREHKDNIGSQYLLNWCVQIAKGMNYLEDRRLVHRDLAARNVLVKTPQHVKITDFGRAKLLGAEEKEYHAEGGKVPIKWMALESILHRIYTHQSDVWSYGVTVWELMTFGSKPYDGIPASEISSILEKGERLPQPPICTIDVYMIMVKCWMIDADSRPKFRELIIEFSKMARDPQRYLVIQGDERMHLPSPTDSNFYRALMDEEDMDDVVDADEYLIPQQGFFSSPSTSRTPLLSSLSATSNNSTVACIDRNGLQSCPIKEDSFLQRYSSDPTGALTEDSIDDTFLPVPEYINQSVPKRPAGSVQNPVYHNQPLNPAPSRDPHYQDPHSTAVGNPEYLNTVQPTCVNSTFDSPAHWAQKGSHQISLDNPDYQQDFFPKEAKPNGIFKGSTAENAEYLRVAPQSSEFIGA

With `CCS(=O)(=O)C[C@H]1CN(c2ncc(C(C)C)c3cc(Nc4ccnc(N5CC[C@H](OCCO)[C@H](F)C5)n4)ncc23)[C@@H]1C` [Compound 250, 2-{[(3R,4S)-1-[4-({8-[(2R,3S)-3-[(ethanesulfonyl)methyl]-2-methylazetidin-1-yl]-5-(propan-2-yl)-2,7-naphthyridin-3-yl}amino)pyrimidin-2-yl]-3-fluoropiperidin-4-yl]oxy}ethan-1-ol], the IC50 on EGFR (L858R T790M C797S) was no more than 15 nM; in experiment [1] (setting [2]), no more than 10 nM.
For `CC(C)c1ccc(N2C[C@H](CS(C)(=O)=O)[C@H]2C)c2cnc(Nc3ccnc(N4CC[C@@](C)(O)C(F)(F)C4)n3)cc12` (single isomer, unassigned) [Compound 211, (R)-3,3-difluoro-1-(4-(5-isopropyl-8-((2R,3S)-2-methyl-3-(methylsulfonylmethyl)azetidin-1-yl)isoquinolin-3-ylamino)pyrimidin-2-yl)-4-methylpiperidin-4-ol or (S)-3,3-difluoro-1-(4-(5-isopropyl-8-((2R,3S)-2-methyl-3-(methylsulfonylmethyl)azetidin-1-yl)isoquinolin-3-ylamino)pyrimidin-2-yl)-4-methylpiperidin-4-ol], the results for the IC50 (on EGFR (L858R T790M C797S); in experiment [1] (setting [2])) were 20.1 to 30 nM and no more than 10 nM, respectively.
For the molecule `COC1CCN(c2nccc(Nc3cc4c(C(C)C)cnc(N5C[C@H](CS(C)(=O)=O)[C@H]5C)c4cn3)n2)CC1` [Compound 50, 8-[(2R,3S)-3-(methanesulfonylmethyl)-2-methylazetidin-1-yl]-N-[2-(4-methoxypiperidin-1-yl)pyrimidin-4-yl]-5-(propan-2-yl)-2,7-naphthyridin-3-amine], the IC50 is no more than 15 nM at EGFR (L858R T790M C797S) and no more than 10 nM in experiment [1] (setting [2]).
Turning to `CO[C@H]1CCN(c2nccc(Nc3cc4c(C(C)C)ccc(N5C[C@H](CS(C)(=O)=O)[C@H]5C)c4cn3)n2)C[C@H]1C#N` (single isomer, unassigned) [Compound 165, (3R,4R)-1-[4-({8-[(2R,3S)-3-(methanesulfonylmethyl)-2-methylazetidin-1-yl]-5-(propan-2-yl)isoquinolin-3-yl}amino)pyrimidin-2-yl-4-methoxypiperidine-3-carbonitrile or (3S,4S)-1-[4-({8-[(2R,3S)-3-(methanesulfonylmethyl)-2-methylazetidin-1-yl]-5-(propan-2-yl)isoquinolin-3-yl}amino)pyrimidin-2-yl]-4-methoxypiperidine-3-carbonitrile], the IC50 is no more than 15 nM at EGFR (L858R T790M C797S) and 20.1 to 30 nM in experiment [1] (setting [3]).
Regarding `CCS(=O)(=O)C[C@H]1CN(c2cnc(C(C)C)c3cc(Nc4ccnc(N5CC[C@H](OCCO)[C@H](F)C5)n4)ncc23)[C@@H]1C` [Compound 299, 2-{[(3R,4S)-1-[4-({8-[(2R,3S)-3-[(ethanesulfonyl)methyl]-2-methylazetidin-1-yl]-5-(propan-2-yl)-2,6-naphthyridin-3-yl}amino)pyrimidin-2-yl]-3-fluoropiperidin-4-yl]oxy}ethan-1-ol], the IC50 on EGFR (L858R T790M C797S) was no more than 15 nM; in experiment [1] (setting [2]) it was no more than 10 nM.
On the same counts, the results for `CCS(=O)(=O)C[C@H]1CN(c2ncc(C(C)C)c3cc(Nc4ccnc(N5CC[C@H](OC)[C@@H](O)C5)n4)ncc23)[C@@H]1C` (single isomer, unassigned) [Compound 179] are no more than 15 nM and no more than 10 nM.
Turning to `CN[C@H]1CCN(c2nccc(Nc3cc4c(C(C)C)ccc(N5C[C@H](CS(C)(=O)=O)[C@H]5C)c4cn3)n2)CC1(F)F` (single isomer, unassigned) [Compound 309, N-{2-[(4S)-3,3-difluoro-4-(methylamino)piperidin-1-yl]pyrimidin-4-yl}-8-[(2R,3S)-3-(methanesulfonylmethyl)-2-methylazetidin-1-yl]-5-(propan-2-yl)isoquinolin-3-amine or N-{2-[(4R)-3,3-difluoro-4-(methylamino)piperidin-1-yl]pyrimidin-4-yl}-8-[(2R,3S)-3-(methanesulfonylmethyl)-2-methylazetidin-1-yl]-5-(propan-2-yl)isoquinolin-3-amine], the IC50 at EGFR (L858R T790M C797S) is 15.1 to 20 nM; in experiment [1] (setting [2]) it was no more than 10 nM.
On the same counts, the results for `C[C@@H]1[C@@H](CS(C)(=O)=O)CN1c1cccc2cc(Nc3ccnc(N4C[C@@H](F)[C@@H](O)[C@](C)(F)C4)n3)ncc12` (single isomer, unassigned) [Compound 35, (3R,4R,5R)-3,5-difluoro-1-[4-({8-[(2R,3S)-3-(methanesulfonylmethyl)-2-methylazetidin-1-yl]isoquinolin-3-yl}amino)pyrimidin-2-yl]-3-methylpiperidin-4-ol or (3S,4S,5S)-3,5-difluoro-1-[4-({8-[(2R,3S)-3-(methanesulfonylmethyl)-2-methylazetidin-1-yl]isoquinolin-3-yl}amino)pyrimidin-2-yl]-3-methylpiperidin-4-ol] are no more than 15 nM and 30.1 to 50 nM.
Turning to `CO[C@@H]1CCN(c2nccc(Nc3cc4c(F)ccc(N5C[C@H](CS(C)(=O)=O)[C@H]5C)c4cn3)n2)C[C@@H]1F` [Compound 36, 5-fluoro-N-{2-[(3S,4R)-3-fluoro-4-methoxypiperidin-1-yl]pyrimidin-4-yl}-8-[(2R,3S)-3-(methanesulfonylmethyl)-2-methylazetidin-1-yl]isoquinolin-3-amine], the IC50 on EGFR (L858R T790M C797S) is no more than 15 nM; in experiment [1] (setting [2]), no more than 10 nM.
On to `CO[C@H]1CCN(c2nccc(Nc3cc4cccc(N5C[C@H](CS(C)(=O)=O)[C@H]5C)c4cn3)n2)C[C@H]1F` [Compound 4, N-{2-[(3R,4S)-3-fluoro-4-methoxypiperidin-1-yl]pyrimidin-4-yl}-8-[(2R,3S)-3-(methanesulfonylmethyl)-2-methylazetidin-1-yl]isoquinolin-3-amine], for which the IC50 at EGFR (L858R T790M C797S) was no more than 15 nM; in experiment [1] (setting [2]) it was 30.1 to 50 nM.
Taken in the same sequence, the figures for `CC(C)c1ncc(N2C[C@H](CS(C)(=O)=O)[C@H]2C)c2cnc(Nc3ccnc(N4CC[C@@](C)(O)C(F)(F)C4)n3)cc12` (single isomer, unassigned) [Compound 214, (4R)-3,3-difluoro-1-[4-({8-[(2R,3S)-3-(methanesulfonylmethyl)-2-methylazetidin-1-yl]-5-(propan-2-yl)-2,6-naphthyridin-3-yl}amino)pyrimidin-2-yl]-4-methylpiperidin-4-ol or (4S)-3,3-difluoro-1-[4-({8-[(2R,3S)-3-(methanesulfonylmethyl)-2-methylazetidin-1-yl]-5-(propan-2-yl)-2,6-naphthyridin-3-yl}amino)pyrimidin-2-yl]-4-methylpiperidin-4-ol] were no more than 15 nM and no more than 10 nM.
Consider `CC(C)c1ccc(N2CC(CS(C)(=O)=O)C2)c2cnc(Nc3ccnc(N4CC[C@](C)(O)C[C@@H]4C)n3)cc12` (single isomer, unassigned) [Compound 44, (2R,4R)-1-[4-({8-[3-(methanesulfonylmethyl)azetidin-1-yl]-5-(propan-2-yl)isoquinolin-3-yl}amino)pyrimidin-2-yl]-2,4-dimethylpiperidin-4-ol or (2S,4S)-1-[4-({8-[3-(methanesulfonylmethyl)azetidin-1-yl]-5-(propan-2-yl)isoquinolin-3-yl}amino)pyrimidin-2-yl]-2,4-dimethylpiperidin-4-ol], for which the IC50 at EGFR (L858R T790M C797S) is no more than 15 nM; in experiment [1] (setting [2]), no more than 10 nM.
Consider `CO[C@H]1CCN(c2nccc(Nc3cc4c(C(C)C)ccc(N5CC(CS(C)(=O)=O)C5)c4cn3)n2)CC1(F)F` (single isomer, unassigned) [Compound 158], for which the IC50 is 15.1 to 20 nM at EGFR (L858R T790M C797S) and 10.1 to 20 nM in experiment [1] (setting [2]).
For `CCS(=O)(=O)C[C@@H]1CN(c2ncc(C(C)C)c3cc(Nc4ccnc(N5CC[C@@H](O)[C@@](C)(F)C5)n4)ncc23)[C@H]1C` (single isomer, unassigned) [Compound 189], the IC50 at EGFR (L858R T790M C797S) was no more than 15 nM; in experiment [1] (setting [2]), no more than 10 nM.
On the same counts, the results for `CC(C)c1cnc(N2CC(CS(=O)(=O)C(F)(F)F)C2)c2cnc(Nc3ccnc(N4CC[C@@H](O)[C@@](C)(F)C4)n3)cc12` (single isomer, unassigned) [Compound 237] are 30.1 to 100 nM and 20.1 to 30 nM.
Take `CC(C)c1ccc(N2C[C@H](CS(C)(=O)=O)[C@H]2C)c2cnc(Nc3ccnc(N4CC[C@H](F)[C@H](O)C4)n3)cc12` (single isomer, unassigned) [Compound 268, (3R,4S)-4-fluoro-1-[4-({8-[(2R,3S)-3-(methanesulfonylmethyl)-2-methylazetidin-1-yl]-5-(propan-2-yl)isoquinolin-3-yl}amino)pyrimidin-2-yl]piperidin-3-ol or (3S,4R)-4-fluoro-1-[4-({8-[(2R,3S)-3-(methanesulfonylmethyl)-2-methylazetidin-1-yl]-5-(propan-2-yl)isoquinolin-3-yl}amino)pyrimidin-2-yl]piperidin-3-ol]: the IC50 on EGFR (L858R T790M C797S) was 30.1 to 100 nM; in experiment [1] (setting [2]) it was 20.1 to 30 nM.
Consider `CC(C)c1ccc(N2C[C@H](CS(C)(=O)=O)[C@H]2C)c2cnc(Nc3ccnc(N4CC[C@@H](OC[C@H](C)O)[C@@H](F)C4)n3)cc12` (single isomer, unassigned) [Compound 248, (2R)-1-{[(3S,4R)-3-fluoro-1-[4-({8-[(2R,3S)-3-(methanesulfonylmethyl)-2-methylazetidin-1-yl]-5-(propan-2-yl)isoquinolin-3-yl}amino)pyrimidin-2-yl]piperidin-4-yl]oxy}propan-2-ol or (2S)-1-{[(3S,4R)-3-fluoro-1-[4-({8-[(2R,3S)-3-(methanesulfonylmethyl)-2-methylazetidin-1-yl]-5-(propan-2-yl)isoquinolin-3-yl}amino)pyrimidin-2-yl]piperidin-4-yl]oxy}propan-2-ol], for which the IC50 on EGFR (L858R T790M C797S) is no more than 15 nM; in experiment [1] (setting [3]) it was no more than 10 nM.
